According to US20090253719A1, “CRYSTALLINE SALT FORMS OF ANTIFOLATE COMPOUNDS AND METHODS OF MANUFACTURING THEREOF” (Chelsea Therapeutics, Inc., priority 2008, published 2009):

Key:
CCRF-CEM cells = assay: Growth inhibition of CCRF-CEM cells, continuous (120 hr) drug exposure; format: cell-based; details: Homo sapiens, continuous 120 hr exposure
Description: The human T-lymphoblastic leukemia cell line CCRF-CEM (described in Foley G F, et al., Cancer 1965; 18:522-9) was cultured as described in McCloskey D E, et al., J Biol Chem 1991; 266:6181-7 (both of which are incorporated herein by reference in their entirety) and verified to be negative for Mycoplasma contamination (Mycoplasma Plus PCR primers, Stratagene, La Jolla, Calif.).

[1] = Plasma concentration after oral L- or D-CH-1504 in non-fasted female Lewis rats; format: in vivo
Description: L- or D-CH-1504 was administered once orally to non-fasted female Lewis rats at a dose of 10 mg/kg (vehicle: 0.11% carboxymethylcellulose/0.45% TWEEN 80, formulation: suspension). About 750 μL of blood was collected from the jugular vein at 1 and 3 hours after administration. And then, whole of blood was collected from the femoral vein under diethyl ether anesthesia at 6 hours after administration. The collected blood was immediately centrifuged to obtain a plasma sample. L- and D-CH-1504 were extracted from the plasma by solid-phase extraction and were then determined with a LC/MS/MS.

[2] = Description: A salt screen of this compound was conducted with various pharmaceutically acceptable counterions to analyze aqueous solubility of the formed salts. Formed solids suspected of forming salts were analyzed by X-ray powder diffraction (XRPD).
[3] = Hygroscopicity study (storage at controlled relative humidity); format: physicochemical; details: 75% relative humidity for five days
Excerpt: Hygroscopicity and approximate solubility in aqueous and buffered solutions of ammonium, besylate, calcium, esylate, sulfate, HCl, mesylate, napsylate, potassium, disodium, and tosylate salts were compared. In the hygroscopicity study, the salts were subjected to 75% relative humidity for five days.
An amorphous form was also generated. […] As described above, disodium salt Form A was a crystalline solid obtained using a water/IPA system or a water/acetone system. […] Heating was continued to achieve a temperature of 90° C. Crystallinity was not regained upon cooling to ambient.

For `C=C(CC(NC(=O)c1ccc(CCc2ccc3nc(N)nc(N)c3c2)cc1)C(=O)O)C(=O)O` (racemic) [CH-1504, 2-{4-[2-(2,4-diamino-quinazolin-6-yl)-ethyl]-benzoylamino}-4-methylene-pentanedioic acid], the EC50 (CCRF-CEM cells) was 0.0086 µM, the isomerization in vivo ([1]; by 6 hours after administration of each enantiomer, all samples) was “could not be confirmed” and the “solubility of free acid form” value [2] was “poor solubility”.
In the case of `C=C(C[C@@H](NC(=O)c1ccc(CCc2ccc3nc(N)nc(N)c3c2)cc1)C(=O)O)C(=O)O` [D-CH-1504], the EC50 (CCRF-CEM cells) is reported as 0.029 µM, the “Plasma conc. of D-CH-1504” value ([1]; 1 h after 10 mg/kg oral, non-fasted female Lewis rats, individual animals) is reported as 11.0 ng/mL and the concentration at 3 h ([1]; female, Lewis, rat, plasma, oral, 10 mg/kg, 3 h after 10 mg/kg oral, non-fasted female Lewis rats, individual animals, read-out: Plasma conc. of D-CH-1504) is reported as 14.3 ng/mL. It also gave a concentration at 6 h ([1]; female, Lewis, rat, plasma, oral, 10 mg/kg, 6 h after 10 mg/kg oral, non-fasted female Lewis rats, individual animals, read-out: Plasma conc. of D-CH-1504) of 8.34 ng/mL.
In the case of `C=C(C[C@H](NC(=O)c1ccc(CCc2ccc3nc(N)nc(N)c3c2)cc1)C(=O)O)C(=O)O` [L-CH-1504, (S)-2-{4-[2-(2,4-diamino-quinazolin-6-yl)-ethyl]-benzoylamino}-4-methylene-pentanedioic acid], the EC50 (CCRF-CEM cells) is reported as 0.0061 µM.
For `CN(Cc1cnc2nc(N)nc(N)c2n1)c1ccc(C(=O)NC(CCC(=O)O)C(=O)O)cc1` (stereo not shown) [MTX, methotrexate, reference compound], the EC50 (CCRF-CEM cells) was 0.015 µM.
In the case of `C=C(CC(NC(=O)c1ccc(CCc2ccc3nc(N)nc(N)c3c2)cc1)C(=O)O)C(=O)O.O=S(=O)(O)c1ccc2ccccc2c1` (stereo not shown) [napsylate salt], the hygroscopicity study outcome [3] is reported as “remained unchanged”.
